{"source": "patent US6818780B2", "about": "“P-hydroxyphenyl propionic acid derivatives as antiproliferative agents” (Consejo Superior de Investigaciones Cientificas, priority 2000, dated 2004)", "system": "human peripheral blood mononuclear cells (CMSP)", "assay": "Test on lymphocyte proliferation: human peripheral blood mononuclear cells (3H-thymidine incorporation), with or without rhIL-2", "assay_type": "cell-based", "settings": "5 days; for Proliferation of human peripheral blood mononuclear cells, Con A 2 μg/ml (cpm ± DS) / Proliferation of human peripheral blood mononuclear cells, Medium (cpm ± DS) / Proliferation of human peripheral blood mononuclear cells, PHA 10 μg/ml (cpm ± DS) / Proliferation of human peripheral blood mononuclear cells, aCD3 5 μg/ml (cpm ± DS) / Proliferation of human peripheral blood mononuclear cells, aCD3 + Con A (cpm ± DS) / Proliferation of human peripheral blood mononuclear cells, aCD3 + PHA (cpm ± DS): no rhIL-2; for Proliferation of human peripheral blood mononuclear cells in the presence of rhIL-2, Con A 2 μg/ml (cpm ± DS) / Proliferation of human peripheral blood mononuclear cells in the presence of rhIL-2, Medium (cpm ± DS) / Proliferation of human peripheral blood mononuclear cells in the presence of rhIL-2, PHA 10 μg/ml (cpm ± DS) / Proliferation of human peripheral blood mononuclear cells in the presence of rhIL-2, aCD3 5 μg/ml (cpm ± DS) / Proliferation of human peripheral blood mononuclear cells in the presence of rhIL-2, aCD3 + Con A (cpm ± DS) / Proliferation of human peripheral blood mononuclear cells in the presence of rhIL-2, aCD3 + PHA (cpm ± DS): rhIL-2 100 UI/ml", "description": "Tests on Human Peripheral Blood Mononuclear Cells Material and Methods:\nIn order to study more deeply the effects of lactone on cell proliferation, we checked whether the effects described in the above section on cells of murine origin were specific to the cell type and the species or whether, on the other hand, these effects were xeno-independent. For this, we purified human peripheral blood mononuclear cells from healthy controls and we proceeded to study the possible effects of inhibition on the proliferative activity of peripheral blood mononuclear cells (CMSP) from humans, induced by different mitogenic agents acting alone and/or in costimulation with other mitogens and in the presence or absence of recombinant human interleukin 2 (rhIL-2).\nMitogens: Phytohaemaglutinin M (PHA) (Difco Lab., Detroit, Mich., USA), Concanavalin A (Con A, 2 μg/ml, Sigma Chemical Co., Mich., USA), Immobilised anti-CD3 (OKT3, 5 μg/ml, Ortho-mune, Orthodiagnostic System) and rhIL-2 (100 IU/ml, Hoffman-La Roche, N.J., USA).\nAll the reagents included in these tests were diluted in RPMI 1640 culture medium (Whitaker Bioproducts, Walkersville, USA) supplemented with 10% of decomplemented foetal calf serum (Biochrom K G, Berlin), L-glutamin (2 mM, Biochrom K G), Hepes (25 mM, Biochrom K G) and antibiotic (1% penicillin streptomycin, Difco Lab, Detroit, Mich., USA).\nAlso, all the mitogens were optimised in a dose response way in order to obtaining the maximum proliferative response after 5 days of culture.\nVenous blood: The CMSP were obtained from venous blood extracted by antecubital venous puncture. 50 ml of blood were extracted to which were added 50 U of calcic heparin and the mixture was diluted 1/1 (vol/vol) with PSS.\nHuman mononucleated cells: In order to isolate the CMSP they were proceeded to be separated from the rest of the blood components by means of the formation of a density gradient on Ficoll. The cells thus obtained are resuspended in PSS and centrifuged at 400×g for 10 minutes (washing process) and then resuspended in PSS. This operation is repeated three times. In the last of them, PSS is replaced with complete medium.\nGeneral culture conditions: All cell cultures were developed under conditions of sterility in a vertical laminar flow chamber, using single-use sterile materials or materials sterilised in an autoclave or with ethylene oxide. The cultures were conserved in a stove kept at a temperature of 37° C., in an atmosphere with 5% CO2 and relative humidity of 95%. In the various experiments performed, the purified CMSP cell preparations were incubated in sterile dishes with 96 wells at concentrations of 5×10^4 cells/well (200 μl) in the presence of different concentrations of different mitogens for 5 days.\nThe method used for quantifying the cell proliferation was analysis of the incorporation of ^3H-thymidine (^3H-T) into DNA synthesised de novo, detecting the emission of β radiation from the dry extracts of cell cultures to which the tritiated base had been added before its finalisation and collection. The synthesis of DNA was done in triplicate on sterile dishes with 96 flat-bottom wells.\nFrom 20 to 24 hour prior to terminating the cell culture, 1 μCi of ^3H-T was added to each well containing medium; the cultures were gathered by suction through a glass filter, using a Skatron culture collector for this.\nThe synthesis of DNA has been expressed in counts per minute (cpm). Each test was conducted in triplicate, with those data having a variability greater than 10% compared to the mean of the triplicate being rejected, since they could indicate a technical error or contamination in the culture. The cultures were carried out at a constant cell volume per well, as well as at a constant volume of 200 μl.\nNegative Control: Cells in the Presence of Complete Culture Medium\nPositive Control: Stimulation of Cells without the Presence of Lactone […]", "data": [{"smiles": "C=C1C(=O)OC(CCc2ccc(OC)cc2)C1C", "note": "(stereo not drawn) [lactone]", "values": [{"measurement": "Proliferation of human peripheral blood mononuclear cells, Con A 2 μg/ml (cpm ± DS)", "setting": "Lactone 0.0001 μg/ml", "result": "75329 ± 9144", "unit": "cpm"}, {"measurement": "Proliferation of human peripheral blood mononuclear cells, Medium (cpm ± DS)", "setting": "Lactone 0.0001 μg/ml", "result": "3175 ± 1574", "unit": "cpm"}, {"measurement": "Proliferation of human peripheral blood mononuclear cells, PHA 10 μg/ml (cpm ± DS)", "setting": "Lactone 0.0001 μg/ml", "result": "76612 ± 15020", "unit": "cpm"}, {"measurement": "Proliferation of human peripheral blood mononuclear cells, aCD3 5 μg/ml (cpm ± DS)", "setting": "Lactone 0.0001 μg/ml", "result": "44721 ± 4082", "unit": "cpm"}, {"measurement": "Proliferation of human peripheral blood mononuclear cells, aCD3 + Con A (cpm ± DS)", "setting": "Lactone 0.0001 μg/ml", "result": "115090 ± 4133", "unit": "cpm"}, {"measurement": "Proliferation of human peripheral blood mononuclear cells, aCD3 + PHA (cpm ± DS)", "setting": "Lactone 0.0001 μg/ml", "result": "105395 ± 375", "unit": "cpm"}, {"measurement": "Proliferation of human peripheral blood mononuclear cells in the presence of rhIL-2, Con A 2 μg/ml (cpm ± DS)", "setting": "Lactone 0.0001 μg/ml", "result": "96972 ± 18274", "unit": "cpm"}, {"measurement": "Proliferation of human peripheral blood mononuclear cells in the presence of rhIL-2, Medium (cpm ± DS)", "setting": "Lactone 0.0001 μg/ml", "result": "56451 ± 4965", "unit": "cpm"}, {"measurement": "Proliferation of human peripheral blood mononuclear cells in the presence of rhIL-2, PHA 10 μg/ml (cpm ± DS)", "setting": "Lactone 0.0001 μg/ml", "result": "130524 ± 8929", "unit": "cpm"}, {"measurement": "Proliferation of human peripheral blood mononuclear cells in the presence of rhIL-2, aCD3 5 μg/ml (cpm ± DS)", "setting": "Lactone 0.0001 μg/ml", "result": "87091 ± 7078", "unit": "cpm"}, {"measurement": "Proliferation of human peripheral blood mononuclear cells in the presence of rhIL-2, aCD3 + Con A (cpm ± DS)", "setting": "Lactone 0.0001 μg/ml", "result": "154981 ± 15723", "unit": "cpm"}, {"measurement": "Proliferation of human peripheral blood mononuclear cells in the presence of rhIL-2, aCD3 + PHA (cpm ± DS)", "setting": "Lactone 0.0001 μg/ml", "result": "133621 ± 12440", "unit": "cpm"}, {"measurement": "Proliferation of human peripheral blood mononuclear cells, Con A 2 μg/ml (cpm ± DS)", "setting": "Lactone 0.01 μg/ml", "result": "55503 ± 9023", "unit": "cpm"}, {"measurement": "Proliferation of human peripheral blood mononuclear cells, Medium (cpm ± DS)", "setting": "Lactone 0.01 μg/ml", "result": "2867 ± 1527", "unit": "cpm"}, {"measurement": "Proliferation of human peripheral blood mononuclear cells, PHA 10 μg/ml (cpm ± DS)", "setting": "Lactone 0.01 μg/ml", "result": "71092 ± 3555", "unit": "cpm"}, {"measurement": "Proliferation of human peripheral blood mononuclear cells, aCD3 5 μg/ml (cpm ± DS)", "setting": "Lactone 0.01 μg/ml", "result": "40378 ± 219", "unit": "cpm"}, {"measurement": "Proliferation of human peripheral blood mononuclear cells, aCD3 + Con A (cpm ± DS)", "setting": "Lactone 0.01 μg/ml", "result": "93139 ± 3070", "unit": "cpm"}, {"measurement": "Proliferation of human peripheral blood mononuclear cells, aCD3 + PHA (cpm ± DS)", "setting": "Lactone 0.01 μg/ml", "result": "67011 ± 8270", "unit": "cpm"}, {"measurement": "Proliferation of human peripheral blood mononuclear cells in the presence of rhIL-2, Con A 2 μg/ml (cpm ± DS)", "setting": "Lactone 0.01 μg/ml", "result": "54196 ± 80", "unit": "cpm"}, {"measurement": "Proliferation of human peripheral blood mononuclear cells in the presence of rhIL-2, Medium (cpm ± DS)", "setting": "Lactone 0.01 μg/ml", "result": "42568 ± 8631", "unit": "cpm"}, {"measurement": "Proliferation of human peripheral blood mononuclear cells in the presence of rhIL-2, PHA 10 μg/ml (cpm ± DS)", "setting": "Lactone 0.01 μg/ml", "result": "106754 ± 698", "unit": "cpm"}, {"measurement": "Proliferation of human peripheral blood mononuclear cells in the presence of rhIL-2, aCD3 5 μg/ml (cpm ± DS)", "setting": "Lactone 0.01 μg/ml", "result": "39771 ± 3258", "unit": "cpm"}, {"measurement": "Proliferation of human peripheral blood mononuclear cells in the presence of rhIL-2, aCD3 + Con A (cpm ± DS)", "setting": "Lactone 0.01 μg/ml", "result": "130949 ± 16623", "unit": "cpm"}, {"measurement": "Proliferation of human peripheral blood mononuclear cells in the presence of rhIL-2, aCD3 + PHA (cpm ± DS)", "setting": "Lactone 0.01 μg/ml", "result": "94165 ± 15647", "unit": "cpm"}, {"measurement": "Proliferation of human peripheral blood mononuclear cells, Con A 2 μg/ml (cpm ± DS)", "setting": "Lactone 1 μg/ml", "result": "13294 ± 3395", "unit": "cpm"}, {"measurement": "Proliferation of human peripheral blood mononuclear cells, Medium (cpm ± DS)", "setting": "Lactone 1 μg/ml", "result": "1805 ± 1870", "unit": "cpm"}, {"measurement": "Proliferation of human peripheral blood mononuclear cells, PHA 10 μg/ml (cpm ± DS)", "setting": "Lactone 1 μg/ml", "result": "25118 ± 6642", "unit": "cpm"}, {"measurement": "Proliferation of human peripheral blood mononuclear cells, aCD3 5 μg/ml (cpm ± DS)", "setting": "Lactone 1 μg/ml", "result": "1286 ± 255", "unit": "cpm"}, {"measurement": "Proliferation of human peripheral blood mononuclear cells, aCD3 + Con A (cpm ± DS)", "setting": "Lactone 1 μg/ml", "result": "829 ± 484", "unit": "cpm"}, {"measurement": "Proliferation of human peripheral blood mononuclear cells, aCD3 + PHA (cpm ± DS)", "setting": "Lactone 1 μg/ml", "result": "8689 ± 5361", "unit": "cpm"}, {"measurement": "Proliferation of human peripheral blood mononuclear cells in the presence of rhIL-2, Con A 2 μg/ml (cpm ± DS)", "setting": "Lactone 1 μg/ml", "result": "71210 ± 5211", "unit": "cpm"}, {"measurement": "Proliferation of human peripheral blood mononuclear cells in the presence of rhIL-2, Medium (cpm ± DS)", "setting": "Lactone 1 μg/ml", "result": "9548 ± 808", "unit": "cpm"}, {"measurement": "Proliferation of human peripheral blood mononuclear cells in the presence of rhIL-2, PHA 10 μg/ml (cpm ± DS)", "setting": "Lactone 1 μg/ml", "result": "110507 ± 698", "unit": "cpm"}, {"measurement": "Proliferation of human peripheral blood mononuclear cells in the presence of rhIL-2, aCD3 5 μg/ml (cpm ± DS)", "setting": "Lactone 1 μg/ml", "result": "36280 ± 77", "unit": "cpm"}, {"measurement": "Proliferation of human peripheral blood mononuclear cells in the presence of rhIL-2, aCD3 + Con A (cpm ± DS)", "setting": "Lactone 1 μg/ml", "result": "66429 ± 9241", "unit": "cpm"}, {"measurement": "Proliferation of human peripheral blood mononuclear cells in the presence of rhIL-2, aCD3 + PHA (cpm ± DS)", "setting": "Lactone 1 μg/ml", "result": "88220 ± 3174", "unit": "cpm"}]}]}
